From patent publication US8957025B2, “Enkephalin analogues” (Pfizer Inc., priority 2011, dated 2015)

What was measured:
mu opioid receptor = mu opioid receptor (UniProt P35372); experiment: Mu-opioid receptor agonist activity; format: cell-based
Description: The ability of agonists to cause recruitment of beta-arrestin to the mu opioid receptor was measured using DiscoveRx PathHunter technology. A pro-linked tagged mu-opioid receptor and an EA-tagged beta-arrestin were expressed in U2OS cells and beta-arrestin recruitment measured following the methodology in McGuinness et al., 2009 (J Biomol Screen 14:49-58, Characterizing cannabinoid CB2 receptor ligands using DiscoverRx PathHunter beta-arrestin assay—McGuinness D., Malikzay A., Visconti R., Lin K., Bayne M., Monsma F., Lunn C A.)
The ability of mu opioid receptor agonists to inhibit forskolin stimulated cAMP production was measured in CHO cells recombinantly expressing the mu opioid receptor, using alphascreen technology as described in Nickolls et al., 2005, with the additional inclusion of 50 uM forskolin in the assay buffer. (J Pharmacol Exp Ther 313; 1281-88, Functional selectivity of melanocortin 4 receptor peptide and non-peptide agonists: Evidence for ligand specific conformational states. Nickolls S A., Fleck B., Hoare S., Maki R.)
Functional activity at the mu-opioid receptors was determined using the electrically stimulated guinea pig isolated myenteric plexus preparation following the methodology of Hughes, J.; Kosterlitz, H. W. and Leslie, F. M. Br. J. Pharmacol. 1975, 53, 371.

Dofetilide binding = details: probe dofetilide
[1] = Human liver microsomal stability assay (HLM); format: in vitro ADME; details: pooled liver microsomes, pH 7.4, 1 μM substrate, 37° C.
Excerpt: In vitro measurement of substrate metabolism can be determined using the microsomal cytochrome P450 mono-oxygenase system. This is a useful application in ranking clearance of a number of compounds by Phase I (including cytochrome P450) metabolism prior to in vivo assessment Measurement of intrinsic clearance using these methods also allows a comparison of species difference to be made to assist with translation of pharmacokinetic parameters from preclinical to clinical study.
Human and rat Liver microsomal assays were performed using pooled microsomes from the Pfizer Global Supply (BD Gentest™). Chemical reagents were purchased from commercial sources (Sigma-Aldrich) and drug entities synthesised at Pfizer Global Research. Incubation mixtures contained 50 mM phosphate buffer pH 7.4, 5 mM MgCl2, 5 mM isocitric acid and 1 unit/ml isocitric dehydrogenase. The microsomes were defrosted at room temperature and sufficient volumes added to give a final concentration of 0.5 nmol cytochrome P450/ml. Following the addition of 1 μM of substrate, the incubation was pre-incubated at 37° C. for 5 minutes. The reaction was then initiated by the addition of 1 mM NADP and incubation aliquots are taken over a 1 h time course. The reaction was subsequently stopped by addition of acetonitrile cooled on ice. […]
The intrinsic clearance in rat or human liver microsomes is calculated from: […]

MDR = MDR Papp permeability; format: in vitro ADME; details: not told
[2] = Lipophilicity (LogD), shake-flask octanol/buffer pH 7.4; format: physicochemical; details: octanol / 0.1M phosphate buffer pH 7.4
Excerpt: LogD octanol (pH 7.4) is a measure of lipophilicity that accounts for both hydrophobic and hydrogen-bonding interactions of a given substrate. This assay is based on shake-flask methodology, performed in a fully automated manner in a 0.1M phosphate buffer pH7.4-octanol system.
After addition of the test substance in DMSO stock solution to the mixture and vigorous agitation followed by separation of the octanol and buffer layers by centrifugation, duplicate samples are removed from each layer and diluted prior to analysis by LC-MS/MS. Peak area is corrected for dilutions and the following equation used to calculate the logD (pH 7.4): […]
The duplicate logD values must be with 0.4 log units of each other and the positive controls must be within 0.2 log units of the known logD value.

Structure (SMILES): Cc1cc(O)cc(C)c1C[C@H](N)C(=O)N[C@H](C)C(=O)NC[C@@H](N)Cc1ccccc1 [Example 1, 2,6-Dimethyl-L-tyrosyl-N-[(2S)-2-amino-3-phenylpropyl]-D-alaninamide]
- IC50 (mu opioid receptor): 9.8 nM
- IC50 (Dofetilide binding): > 22000 nM
- microsomal CLint at 1 μM [1]: 8.4 µL/min/mg
- Papp (MDR): 0.7 ×10⁻⁶ cm/s
- logD [2]: 0.05

Structure (SMILES): Cc1cc(O)cc(C)c1C[C@H](N)C(=O)N[C@H](C)C(=O)NC[C@H](N)Cc1ccccc1 [Example 2, 2,6-Dimethyl-L-tyrosyl-N-[(2R)-2-amino-3-phenylpropyl]-D-alaninamide]
- IC50 (mu opioid receptor): 6 nM
- IC50 (Dofetilide binding): > 22000 nM
- microsomal CLint at 1 μM [1]: < 8 µL/min/mg
- Papp (MDR): 0.6 ×10⁻⁶ cm/s
- logD [2]: -0.2
